Source: US12201610B2, “Compositions comprising aticaprant” (Janssen Pharmaceuticals, Inc., priority 2022, dated 2025)

Test system: subjects with MDD
Assay: MADRS total score, adjunctive aticaprant vs placebo in MDD (Example 6)
Conditions: for MADRS LSMeans difference estimate, supplementary analysis of data collected prior to 15 Mar. 2020 (COVID-19): MMRM
[1] = eITT, Treatment Week 6, 10 mg adjunctive to SSRI/SNRI
[2] = fITT Analysis Set, High anhedonia, Treatment Week 1
[3] = fITT Analysis Set, High anhedonia, Treatment Week 3
[4] = fITT Analysis Set, High anhedonia, Treatment Week 4
[5] = fITT Analysis Set, High anhedonia, Treatment Week 5
[6] = fITT Analysis Set, High anhedonia, Treatment Week 6
[7] = fITT Analysis Set, Low anhedonia, Treatment Week 1
[8] = fITT Analysis Set, Low anhedonia, Treatment Week 3
[9] = fITT Analysis Set, Low anhedonia, Treatment Week 4
[10] = fITT Analysis Set, Low anhedonia, Treatment Week 5
[11] = fITT Analysis Set, Low anhedonia, Treatment Week 6
[12] = fITT, Treatment Week 1, 10 mg adjunctive to SSRI/SNRI
[13] = fITT, Treatment Week 3, 10 mg adjunctive to SSRI/SNRI
[14] = fITT, Treatment Week 4, 10 mg adjunctive to SSRI/SNRI
[15] = fITT, Treatment Week 5, 10 mg adjunctive to SSRI/SNRI
[16] = fITT, Treatment Week 6, 10 mg adjunctive to SSRI/SNRI
[17] = fITT, Treatment Week 6, high anhedonia level
[18] = fITT, Treatment Week 6, low anhedonia level

SMILES: Cc1cc(C)cc(C2CCCN2Cc2ccc(Oc3ccc(C(N)=O)cc3F)cc2)c1 (centres unmarked) [aticaprant, 3-fluoro-4-4-2-(3,5-dimethylphenyl)pyrrolidin-1-yl-methylphenoxybenzamide]
- MADRS Total Score Mean Change from Baseline (SD) [1]: −10.2 (8.44)
- MADRS Total Score Mean Change to Placebo (SD pooled) [1]: −2.0 (8.49)
- MADRS total score change, difference between aticaprant and placebo (eITT, Treatment Week 6, high anhedonia level (SHAPS total score ≥38 at treatment baseline)): −3.4
- MADRS total score observed effect size (eITT, Treatment Week 6, high anhedonia level (SHAPS ≥38)): 0.38
- MADRS total score observed effect size (eITT, Treatment Week 6, low anhedonia level (20≤ SHAPS <38)): 0.11
- MADRS total score change, difference between aticaprant and placebo (eITT, Treatment Week 6, low anhedonia level (20≤ baseline SHAPS total score <38)): −0.9
- MADRS Total Score Effect size (eITT, Treatment Week 6, vs placebo, negative favors aticaprant): 0.23
- MADRS Total Score Effect size (eITT, Treatment Week 6, vs placebo, negative favors aticaprant, listed as Aticaprant): −0.23
- MADRS LSMeans difference estimate, supplementary analysis of data collected prior to 15 Mar. 2020 (COVID-19) (eITT, vs placebo): −3.0
- MADRS Total Score Effect size [2]: −0.45
- MADRS Total Score Mean Change from Baseline (SD) [2]: −4.4 (5.04)
- MADRS Total Score Mean Change to Placebo (SD pooled) [2]: −2.0 (4.38)
- MADRS Total Score Effect size [3]: −0.54
- MADRS Total Score Mean Change from Baseline (SD) [3]: −6.9 (6.66)
- MADRS Total Score Mean Change to Placebo (SD pooled) [3]: −3.8 (6.94)
- MADRS Total Score Effect size [4]: −0.50
- MADRS Total Score Mean Change from Baseline (SD) [4]: −8.6 (7.32)
- MADRS Total Score Mean Change to Placebo (SD pooled) [4]: −3.8 (7.56)
- MADRS Total Score Effect size [5]: −0.51
- MADRS Total Score Mean Change from Baseline (SD) [5]: −10.2 (8.04)
- MADRS Total Score Mean Change to Placebo (SD pooled) [5]: −4.0 (7.87)
- MADRS Total Score Effect size [6]: −0.51
- MADRS Total Score Mean Change from Baseline (SD) [6]: −11.3 (8.69)
- MADRS Total Score Mean Change to Placebo (SD pooled) [6]: −4.6 (9.03)
- MADRS Total Score Effect size [7]: −0.24
- MADRS Total Score Mean Change from Baseline (SD) [7]: −2.4 (4.59)
- MADRS Total Score Mean Change to Placebo (SD pooled) [7]: −1.0 (4.39)
- MADRS Total Score Effect size [8]: −0.08
- MADRS Total Score Mean Change from Baseline (SD) [8]: −4.1 (6.67)
- MADRS Total Score Mean Change to Placebo (SD pooled) [8]: −0.5 (6.37)
- MADRS Total Score Effect size [9]: −0.23
- MADRS Total Score Mean Change from Baseline (SD) [9]: −6.4 (6.77)
- MADRS Total Score Mean Change to Placebo (SD pooled) [9]: −1.5 (6.65)
- MADRS Total Score Effect size [10]: −0.10
- MADRS Total Score Mean Change from Baseline (SD) [10]: −7.3 (6.90)
- MADRS Total Score Mean Change to Placebo (SD pooled) [10]: −0.7 (6.86)
- MADRS Total Score Effect size [11]: −0.29
- MADRS Total Score Mean Change from Baseline (SD) [11]: −8.8 (7.48)
- MADRS Total Score Mean Change to Placebo (SD pooled) [11]: −2.3 (7.80)
- MADRS Total Score Change from Baseline Mean (SD) [12]: −3.1
- MADRS Total Score Mean (SD) [12]: 21.7
- MADRS Total Score Mean Change to Placebo (SD pooled) [12]: −1.3 (4.43)
- MADRS Total Score Effect size (fITT, Treatment Week 1, vs placebo, negative favors aticaprant): −0.29
- MADRS Total Score Change from Baseline Mean (SD) [13]: −5.1
- MADRS Total Score Mean (SD) [13]: 20.0
- MADRS Total Score Mean Change to Placebo (SD pooled) [13]: −1.7 (6.62)
- MADRS Total Score Effect size (fITT, Treatment Week 3, vs placebo, negative favors aticaprant): −0.26
- MADRS Total Score Change from Baseline Mean (SD) [14]: −7.2
- MADRS Total Score Mean (SD) [14]: 17.9
- MADRS Total Score Mean Change to Placebo (SD pooled) [14]: −2.3 (7.02)
- MADRS Total Score Effect size (fITT, Treatment Week 4, vs placebo, negative favors aticaprant): −0.32
- MADRS Total Score Change from Baseline Mean (SD) [15]: −8.3
- MADRS Total Score Mean (SD) [15]: 16.7
- MADRS Total Score Mean Change to Placebo (SD pooled) [15]: −1.9 (7.31)
- MADRS Total Score Effect size (fITT, Treatment Week 5, vs placebo, negative favors aticaprant): −0.26
- percentage of subjects with MADRS remission (MADRS total score ≤10) (fITT, Treatment Week 6): 31.2%
- percentage of subjects with ≥30% improvement in MADRS total score (fITT, Treatment Week 6): 61.8%
- percentage of subjects with ≥50% improvement in MADRS total score (fITT, Treatment Week 6): 38.2%
- MADRS Total Score Mean (SD) [16]: 15.9
- MADRS Total Score Mean Change to Placebo (SD pooled) [16]: −3.0 (8.31)
- MADRS total score change, difference between aticaprant and placebo [17]: −4.6
- MADRS total score observed effect size [17]: 0.51
- MADRS total score change, difference between aticaprant and placebo [18]: −2.3
- MADRS total score observed effect size [18]: 0.29
- MADRS Total Score Effect size (fITT, Treatment Week 6, vs placebo, negative favors aticaprant): 0.36
- MADRS Total Score Effect size (fITT, Treatment Week 6, vs placebo, negative favors aticaprant, listed as Aticaprant): −0.36
- onset of significant treatment effect favoring aticaprant (MADRS least squares mean change, FIG. 10-B) (fITT, vs placebo): 3 week
- MADRS LSMeans difference estimate, supplementary analysis of data collected prior to 15 Mar. 2020 (COVID-19) (fITT, vs placebo): −3.4
